Results published in patent US20170035708A1, “USE OF N-(4-TERT-BUTYLBENZYL)-3-CHLORO-N-[2-(4-CHLORO-3-ETHYL-PHENYL)-ETHYL]-2-FLUORO-5-TRIFLUOROMETHYL-BENZAMIDE FOR THE TREATMENT OF EYE DISEASES” (Hoffmann-La Roche Inc., priority 2013, published 2017).

Tested on: Human umbilical vein endothelial cells (HUVEC)
Experiment: alamarBlue viability assay in HUVECs
Format: cell-based
Details: 72 h
Procedure: Human umbilical vein endothelial cells (HUVEC), the growth medium EGM and the basal medium EBM was obtained from Lonza. Additional FCS for the starving medium was used form Invitrogen.
The viability assay with alamarBlue® from Invitrogen was done in 96 well gelatin coated plates from BD.
The tested compounds were dissolved in DMSO at a stock concentration of 10 mM.
VEGF-A165 was obtained from R&D Systems® and has been dissolved at a stock concentration of 100 ug/ml in PBS.
HUVECs cells were maintained in Endothial growth medium (EGM) until Passage 5. For the viability assay HUVECs have been seeded in EBM with 0.5% FCS on gelatin coated 96 well plates at a cell density of 11.000 cells/well. Outer wells were left free and have been filled with medium afterwards. Cells were incubated overnight in a cell culture incubator at 37° C. with 5% CO2. Compounds and VEGF have been diluted in EBM/0.5% FCS to a 20× working concentration. 5 ul of the 20× pre-dilution have been added to the cells. HUVECs which have to be intended to grow under hypoxia conditions have been transferred to a cell culture incubator with 1% O2, 5% CO2 and 37° C. HUVECs grown under normoxia conditions were incubated in a normal cell culture incubator. After 72 h, 11 ul of alamarBlue® have been added to each well of the cells subsequently incubated for 4 h in the cell culture incubator. The absorbance has been detected at 570 nm with a reference wavelength of 600 nm.

| Molecule | alamarBlue assay OD 570 nm-600 nm (4.1 nM, hypoxia) | alamarBlue assay OD 570 nm-600 nm (4.1 nM, normoxia) | alamarBlue assay OD 570 nm-600 nm (10.2 nM, hypoxia) | alamarBlue assay OD 570 nm-600 nm (10.2 nM, normoxia) | alamarBlue assay OD 570 nm-600 nm (25.6 nM, hypoxia) | alamarBlue assay OD 570 nm-600 nm (25.6 nM, normoxia) | alamarBlue assay OD 570 nm-600 nm (64 nM, hypoxia) | alamarBlue assay OD 570 nm-600 nm (64 nM, normoxia) | alamarBlue assay OD 570 nm-600 nm (160 nM, hypoxia) | alamarBlue assay OD 570 nm-600 nm (160 nM, normoxia) | alamarBlue assay OD 570 nm-600 nm (400 nM, hypoxia) | alamarBlue assay OD 570 nm-600 nm (400 nM, normoxia) | alamarBlue assay OD 570 nm-600 nm (1000 nM, hypoxia) | alamarBlue assay OD 570 nm-600 nm (1000 nM, normoxia) | alamarBlue assay OD 570 nm-600 nm (2500 nM, hypoxia) | alamarBlue assay OD 570 nm-600 nm (2500 nM, normoxia) | effect on viability of HUVECs (hypoxia) | effect on viability of HUVECs (normoxia) | also measured |
| --- | --- | --- | --- | --- | --- | --- | --- | --- | --- | --- | --- | --- | --- | --- | --- | --- | --- | --- | --- |
| Cc1cc(C)c2c(c1)[C@@H](N(Cc1cc(C(F)(F)F)cc(C(F)(F)F)c1)c1nnn(C)n1)CCCN2C[C@H]1CC[C@H](C(=O)O)CC1 [Evacetrapib, Trans-4-({(5S)-5-[{[3,5-bis(trifluoromethyl)phenyl]methyl}(2-methyl-2H-tetrazol-5-yl)amino]-7,9-dimethyl-2,3,4,5-tetrahydro-1H-benzazepin-1-yl}methyl) cydohexanecarboxylic acid] | 0.0141 | 0.0032 | 0.0129 | 0.0158 | 0.0131 | 0.0164 | 0.0076 | 0.0051 | 0.0168 | 0.0227 | 0.0403 | 0.0103 | 0.0564 | 0.0191 | −0.1084 | −0.0107 | negative effect on the cell viability | no influence of viability could be detected |  |
| VEGF |  |  |  |  |  |  |  |  |  |  |  |  |  |  |  |  |  |  | viability measured at 570 nm (alamarBlue) (VEGF 1.2 ng/ml, hypoxia): 0.0480; viability measured at 570 nm (alamarBlue) (VEGF 1.2 ng/ml, normoxia): 0.0268; viability measured at 570 nm (alamarBlue) (VEGF 2.3 ng/ml, hypoxia): 0.0679; viability measured at 570 nm (alamarBlue) (VEGF 2.3 ng/ml, normoxia): 0.0394; viability measured at 570 nm (alamarBlue) (VEGF 4.7 ng/ml, hypoxia): 0.0983; viability measured at 570 nm (alamarBlue) (VEGF 4.7 ng/ml, normoxia): 0.0582; viability measured at 570 nm (alamarBlue) (VEGF 9.4 ng/ml, hypoxia): 0.1114; viability measured at 570 nm (alamarBlue) (VEGF 9.4 ng/ml, normoxia): 0.0908; viability measured at 570 nm (alamarBlue) (VEGF 18.8 ng/ml, hypoxia): 0.1039; viability measured at 570 nm (alamarBlue) (VEGF 18.8 ng/ml, normoxia): 0.1265; viability measured at 570 nm (alamarBlue) (VEGF 37.5 ng/ml, hypoxia): 0.0927; viability measured at 570 nm (alamarBlue) (VEGF 37.5 ng/ml, normoxia): 0.1449; viability measured at 570 nm (alamarBlue) (VEGF 75 ng/ml, hypoxia): 0.0906; viability measured at 570 nm (alamarBlue) (VEGF 75 ng/ml, normoxia): 0.1642; viability measured at 570 nm (alamarBlue) (VEGF 150 ng/ml, hypoxia): 0.0825; viability measured at 570 nm (alamarBlue) (VEGF 150 ng/ml, normoxia): 0.1618; survival signal in HUVECs in response to VEGF-A165 (normoxia and hypoxia): dose dependent survival signal |
| COc1cc(F)c(C(C)C)cc1-c1ccc(C(F)(F)F)cc1CN1C(=O)O[C@H](c2cc(C(F)(F)F)cc(C(F)(F)F)c2)[C@@H]1C [Anacetrapib, (4S,5R)-5-[3,5-bis(trifluoromethyl)phenyl]-3-({2-[4-fluoro-2-methoxy-5-(propan-2-yl)phenyl]-5-(trifluoromethyl)phenyl}methyl)-4-methyl-1,3-oxazolidin-2-one] | 0.0003 | 0.0096 | 0.0065 | 0.0170 | 0.0014 | 0.0203 | 0.0093 | 0.0119 | −0.0022 | 0.0168 | 0.0260 | 0.0352 | 0.0565 | 0.0662 | 0.0814 | 0.0846 | positive effect on viability, albeit with lower efficacy | positive effect of viability |  |
| CCOC(=O)N1c2ccc(C(F)(F)F)cc2[C@@H](N(Cc2cc(C(F)(F)F)cc(C(F)(F)F)c2)C(=O)OC)C[C@H]1CC [Torcetrapib, [2R, 4S] 4-[(3,5-bis-trifluoromethyl-benzyl)-methoxycarbonyl-amino]-2-ethyl-6-trifluoromethyl-3,4-dihydro-2H-quinoline-1-carboxylic acid ethyl ester] | 0.0129 | 0.0020 | 0.0200 | −0.0004 | 0.0118 | 0.0160 | 0.0111 | 0.0007 | 0.0137 | 0.0194 | 0.0308 | 0.0152 | −0.0388 | 0.0001 | −0.0784 | 0.0138 | negative effect on the cell viability | no influence of viability could be detected |  |
